Assay results as given in article PMC7369637, “Inhibition of Resistance-Refractory P. falciparum Kinase PKG Delivers Prophylactic, Blood Stage, and Transmission-Blocking Antiplasmodial Activity” (Cell Chemical Biology, 2020).

Tests used:
Pf Dd2-B2 ABS parasites = experiment: 72-h asexual blood stage (ABS) growth inhibition assay, Dd2-B2; format: cell-based, Plasmodium falciparum; settings: Dd2-B2 wild-type, 72 h; read-out: Mean IC50, 72 h ABS activity
Method: (§1) Synchronicity was achieved using three rounds of sorbitol treatment on early rings, spaced 48 h apart, followed by magnetic purification of segmented schizonts following the final sorbitol treatment. Parasites were highly synchronous to within a 3 h window of development. Assays were repeated on at least three independent occasions (each with technical duplicates) and statistical significance was assessed using Mann Whitney U tests.

sel. Dd2-B2 TKL3T1268R = experiment: 72-h ABS assay, MMV030084-selected line; format: cell-based, Plasmodium falciparum
Method: as §1
The resulting MMV030084-resistant parasites were cloned by limiting dilution ([Baker et al., 2017]) to obtain genetically homogenous cultures for further phenotyping and whole-genome sequencing. A second round of […]. […] Drug susceptibility of resistant lines was assessed using a 72 h ABS assay as described above, and a Mann Whitney U test was applied to assess statistically significant differences.

CC(C)(CNC(=O)[C@H]1CCCN1)c1nc(-c2ccc(Cl)c(O)c2)c(-c2ccncc2)[nH]1 [TCMDC-141060]
IC50 (Pf Dd2-B2 ABS parasites): 180 nM | IC50 (sel. Dd2-B2 TKL3T1268R): 590 nM
